Experiments:
[1] = test system: Akt phosphorylation; assay: Akt Phosphorylation Assay (western blot), Panc-1; assay type: cell-based, human; conditions: at 10 μM, * = activation
Procedure, shortened: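 Panc-1 (KRas G12D) cells were treated with compound at 10 μM final (0.3% DMSO) for 6 h at 37 °C, or with serial dilutions for IC50. Cells were either serum-starved overnight in 0.5% FBS and then stimulated with 1.5 ng/ml EGF for 15 min, or kept in 10% FBS without stimulation. Akt Ser473 phosphorylation in lysates was read by western blot.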

[2] = test system: KRas Q61H mutant; assay: Ras GTP Binding Domain Inhibition Assay (Ras Superfamily Assay); conditions: 20 μM compound; for KRas Q61H mutant + SOS: % inh.: with SOS; for KRas Q61H mutant: % inh.: without SOS
Procedure, shortened: (§1)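 His-tagged GTPases immobilised on nickel-coated plates, pre-incubated with compound (20 μM single point, or serial dilution for IC50) 3 h at room temperature, with or without 10-30 μg/mL Sos (residues 556-1049) in the final hour. Bound Cy3- or Cy5-GTP (100 nM, 45 min) measured by fluorescence after washing.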

[3] = test system: KRas G12D mutant; assay: as above; conditions: 20 μM compound; for KRas G12D mutant + SOS: % inh.: with SOS; for KRas G12D mutant: % inh.: without SOS
Procedure, shortened: as §1

[4] = target: T1, Rac-1 (Homo sapiens, UniProt P63000); assay: as above; conditions: read-out: Rac-1: % inh.
T1 construct: made in house
Procedure, shortened: as §1

[5] = target: T2, Rho-A (Homo sapiens, UniProt P61586); assay: as above; conditions: read-out: Rho-A: % inh..
T2 construct: made in house
Procedure, shortened: as §1

[6] = test system: KRas G12C mutant; assay: as above; conditions: 20 μM compound; for KRas G12C mutant + SOS: % inh.: with SOS; for KRas G12C mutant: % inh.: without SOS
Procedure, shortened: as §1

[7] = test system: KRas wild type; assay: as above; conditions: 20 μM compound; for KRas wild type + SOS: % inh.: with SOS; for KRas wild type: % inh.: without SOS
Procedure, shortened: as §1

T2 sequence (P61586 whole entry): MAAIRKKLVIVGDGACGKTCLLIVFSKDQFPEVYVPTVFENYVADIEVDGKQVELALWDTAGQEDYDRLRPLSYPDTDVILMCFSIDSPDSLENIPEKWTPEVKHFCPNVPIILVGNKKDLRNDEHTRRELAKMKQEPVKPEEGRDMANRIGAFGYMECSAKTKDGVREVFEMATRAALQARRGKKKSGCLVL

SMILES | KRas Q61H mutant + SOS: % inh. [2] | KRas Q61H mutant: % inh. [2] | KRas G12D mutant + SOS: % inh. [3] | KRas G12D mutant: % inh. [3] | inhibition at 20 µM [4] [%] | inhibition at 20 µM [5] [%] | KRas G12C mutant + SOS: % inh. [6] | KRas G12C mutant: % inh. [6] | KRas wild type + SOS: % inh. [7] | KRas wild type: % inh. [7] | % inh of Akt phosphorylation in Panc-1 [1]
COc1cccc(-c2cn3nc(-c4nccn4C)nc(N[C@@H]4CC[C@@H](OC)C4)c3c2-c2ccccn2)c1F (racemic) [Compound 46, rac 6-(2-Fluoro-3-methoxyphenyl)-N-((1R,3R)-3-methoxycyclopentyl)-2-(1-methyl-1H-imidazol-2-yl)-5-(pyridin-2-yl)pyrrolo[2,1-f][1,2,4]triazin-4-amine] | D (D = 76-100% inhibition) | D (D = 76-100% inhibition) | A (A = 1-25% inhibition) | B (B = 26-49% inhibition) | 50 to 75 | 26 to 49 | A (A = 1-25% inhibition) | B (B = 26-49% inhibition) | A (A = 1-25% inhibition) | A (A = 1-25% inhibition) | 0 (0% inhibition)
COc1cnc(Nc2nc(-c3nccn3C)nn3cc(-c4ccn(C(C)C)n4)c(C)c23)nc1 [Compound 56, 6-(1-Isopropyl-1H-pyrazol-3-yl)-N-(5-methoxypyrimidin-2-yl)-5-methyl-2-(1-methyl-1H-imidazol-2-yl)pyrrolo[2,1-f][1,2,4]triazin-4-amine] | D (D = 76-100% inhibition) | C (C = 50-75% inhibition) | B (B = 26-49% inhibition) | B (B = 26-49% inhibition) | 50 to 75 | 50 to 75 | A (A = 1-25% inhibition) | C (C = 50-75% inhibition) | 0 (0 = 0% inhibition) | B (B = 26-49% inhibition) | B* (26-49% activation)
COCCNc1nc(-c2nccn2C)nn2cc(-c3cccc(OC)c3Cl)c(-c3ccccc3)c12 [Compound 29, 6-(2-Chloro-3-methoxyphenyl)-N-(2-methoxyethyl)-2-(1-methyl-1H-imidazol-2-yl)-5-phenylpyrrolo[2,1-f][1,2,4]triazin-4-amine] | 0 (0 = 0% inhibition) | 0 (0 = 0% inhibition) | A (A = 1-25% inhibition) | 0 (0 = 0% inhibition) | 0 | 1 to 25 | A (A = 1-25% inhibition) | 0 (0 = 0% inhibition) | 0 (0 = 0% inhibition) | A (A = 1-25% inhibition) | D (85-100% inhibition)
COc1cc(-c2cn3nc(-c4nccn4C)nc(Nc4cc(OC)ncn4)c3c2C)ccn1 [Compound 50, 6-(2-Methoxypyridin-4-yl)-N-(6-methoxypyrimidin-4-yl)-5-methyl-2-(1-methyl-1H-imidazol-2-yl)pyrrolo[2,1-f][1,2,4]triazin-4-amine] | D (D = 76-100% inhibition) | D (D = 76-100% inhibition) | C (C = 50-75% inhibition) | C (C = 50-75% inhibition) | 26 to 49 | 50 to 75 | A (A = 1-25% inhibition) | A (A = 1-25% inhibition) | B (B = 26-49% inhibition) | C (C = 50-75% inhibition) | D* (85-100% activation)
Cc1c(-c2ccn(C(C)C)n2)cn2nc(-c3nccn3C)nc(Nc3ncccn3)c12 [Compound 54, 6-(1-Isopropyl-1H-pyrazol-3-yl)-5-methyl-2-(1-methyl-1H-imidazol-2-yl)-N-(pyrimidin-2-yl)pyrrolo[2,1-f][1,2,4]triazin-4-amine] | D (D = 76-100% inhibition) | D (D = 76-100% inhibition) | C (C = 50-75% inhibition) | D (D = 76-100% inhibition) | 76 to 100 | 76 to 100 | C (C = 50-75% inhibition) | D (D = 76-100% inhibition) | C (C = 50-75% inhibition) | C (C = 50-75% inhibition) | B* (26-49% activation)

Further lines, with some results ahead:

KRas Q61H mutant + SOS: % inh. [2] | KRas Q61H mutant: % inh. [2] | KRas G12D mutant + SOS: % inh. [3] | KRas G12D mutant: % inh. [3] | inhibition at 20 µM [4] [%] | inhibition at 20 µM [5] [%] | KRas G12C mutant + SOS: % inh. [6] | KRas G12C mutant: % inh. [6] | KRas wild type + SOS: % inh. [7] | KRas wild type: % inh. [7] | SMILES | % inh of Akt phosphorylation in Panc-1 [1]
D (D = 76-100% inhibition) | D (D = 76-100% inhibition) | D (D = 76-100% inhibition) | D (D = 76-100% inhibition) | 76 to 100 | 76 to 100 | D (D = 76-100% inhibition) | D (D = 76-100% inhibition) | D (D = 76-100% inhibition) | D (D = 76-100% inhibition) | Cc1c(-c2ccn(C(C)C)n2)cn2nc(-c3nccn3C)nc(Nc3ccccn3)c12 [Compound 57, 6-(1-Isopropyl-1H-pyrazol-3-yl)-5-methyl-2-(1-methyl-1H-imidazol-2-yl)-N-(pyridin-2-yl)pyrrolo[2,1-f][1,2,4]triazin-4-amine] | D* (85-100% activation)
0 (0 = 0% inhibition) | 0 (0 = 0% inhibition) | A (A = 1-25% inhibition) | A (A = 1-25% inhibition) | 1 to 25 | 1 to 25 | A (A = 1-25% inhibition) | 0 (0 = 0% inhibition) | A (A = 1-25% inhibition) | 0 (0 = 0% inhibition) | COc1ccc(Nc2nc(-c3nccn3C)nn3cc(-c4ccn(C(C)C)n4)c(C)c23)cn1 [Compound 71, 6-(1-Isopropyl-1H-pyrazol-3-yl)-N-(6-methoxypyridin-3-yl)-5-methyl-2-(1-methyl-1H-imidazol-2-yl)pyrrolo[2,1-f][1,2,4]triazin-4-amine] | D* (85-100% activation)
C (C = 50-75% inhibition) | C (C = 50-75% inhibition) | C (C = 50-75% inhibition) | C (C = 50-75% inhibition) | 76 to 100 | 76 to 100 | A (A = 1-25% inhibition) | C (C = 50-75% inhibition) | B (B = 26-49% inhibition) | C (C = 50-75% inhibition) | COc1cc(Nc2nc(-c3nccn3C)nn3cc(-c4cccc(OC)n4)c(C)c23)ncn1 [Compound 65, 6-(6-Methoxypyridin-2-yl)-N-(6-methoxypyrimidin-4-yl)-5-methyl-2-(1-methyl-1H-imidazol-2-yl)pyrrolo[2,1-f][1,2,4]triazin-4-amine] | D* (85-100% activation)
D (D = 76-100% inhibition) | D (D = 76-100% inhibition) | D (D = 76-100% inhibition) | D (D = 76-100% inhibition) | 76 to 100 | 76 to 100 | C (C = 50-75% inhibition) | D (D = 76-100% inhibition) | D (D = 76-100% inhibition) | D (D = 76-100% inhibition) | COc1cc(Nc2nc(-c3nccn3C)nn3cc(-c4ccn(C)n4)c(C)c23)ncn1 [Compound 63, N-(6-Methoxypyrimidin-4-yl)-5-methyl-2-(1-methyl-1H-imidazol-2-yl)-6-(1-methyl-1H-pyrazol-3-yl)pyrrolo[2,1-f][1,2,4]triazin-4-amine] | D* (85-100% activation)
D (D = 76-100% inhibition) | D (D = 76-100% inhibition) | C (C = 50-75% inhibition) | D (D = 76-100% inhibition) | 76 to 100 | 76 to 100 | B (B = 26-49% inhibition) | C (C = 50-75% inhibition) | C (C = 50-75% inhibition) | C (C = 50-75% inhibition) | Cc1c(-c2ccn(C(C)C)n2)cn2nc(-c3nccn3C)nc(Nc3nnco3)c12 [Compound 59, N-(6-(1-Isopropyl-1H-pyrazol-3-yl)-5-methyl-2-(1-methyl-1H-imidazol-2-yl)pyrrolo[2,1-f][1,2,4]triazin-4-yl)-1,3,4-oxadiazol-2-amine] | C* (46-84% activation)

Reference: patent publication US12459951B2, “Compounds that interact with RAS superfamily proteins for treatment of cancers, inflammatory diseases, rasopathies, and fibrotic disease” (SHY Therapeutics, LLC, priority 2022, dated 2025)
